Measurements published in the OPERA property sets (Mansouri et al. 2018).
Peptide text beside a SMILES is read from it.

Structure (SMILES)	logP
Nc1ccc2cc3ccccc3nc2c1	2.77
c1cnc2ncncc2n1	-0.58
Cc1cc(=O)cc(C)o1	0.1
CCOc1ccc(NC(=O)OC2CCCC2)cc1OCC	3.33
O=C(O)c1ccsc1	1.5
ON=CCCc1ccccc1	1.56
O=C(O)COc1cccc(C(=O)O)c1	1.11
C#CCN(CC#C)CC#C	1.27
C1CN2CCC1CC2	1.38
C1=CC=CCC=C1	2.63
CNC(=S)NC	-0.24
CCOP(=S)(OCC)Oc1ccc(S(C)=O)cc1 (stereo unspecified)	2.23
CN(C)C(=O)N(c1ccccc1)c1ccccc1	2.8
COP(=S)(OC)SCC(=O)N(C)C=O	1.48
ClCCl	1.25
O=CNc1ccc(F)cc1	1.27
COCC(F)Cn1ccnc1[N+](=O)[O-] (stereo unspecified)	0.18
N#CCC(=O)O	-0.76
CC(C)NCC(O)c1ccc(Cl)c(Cl)c1 (stereo unspecified)	3.32
CCCCC1CC(C(=O)NC(C(C)Cl)C2OC(SC)C(O)C(O)C2O)N(CC)C1 (stereo unspecified)	3.21
CCC(C)c1cccc(C(C)C)c1O (stereo unspecified)	3.85
COc1ccccc1OCC(=O)NNC(C)C	1.11
Cc1cccc2sc3nncn3c12	1.7
Fc1ccccc1Cn1cc[nH]c1=S	1.77
CNc1c(Cl)cccc1Cl	2.91

Structure (SMILES)	logP
CCOc1cc(N)ccc1C(=O)O	0.99
OCCCOc1cccc(CN2CCCCC2)c1	2.78
CC1(C)C(C(=O)OC(C#N)c2cccc(Oc3ccccc3)c2)C1(C)C (stereo unspecified)	5.7
O=c1c(O)c(-c2ccc(O)cc2O)oc2cc(O)cc(O)c12	1.54
Clc1ccccn1	1.22
NC(=O)C(=Cc1cccc(F)c1)C(N)=O	0.1
CC1(C)O[C@@H]2C[C@H]3[C@@H]4C[C@H](F)C5=CC(=O)C=C[C@]5(C)[C@@]4(F)[C@@H](O)C[C@]3(C)[C@]2(C(=O)CO)O1	2.48
C=CC=O	-0.01
OC(CNCC(O)COc1ccccc1)COc1ccccc1 (stereo unspecified)	2.52
OCCCCl	0.5
CC(=O)C(Cc1ccccc1)C(C)=O	1.89
CC1=NS(=O)(=O)c2ccc(C(F)(F)F)cc2N1	1.59
O=C(O)COc1cccc(-c2ccccc2)c1	3.18
CC12C=CC(=O)C=C1CCC1C2C(O)CC2(C)C1CCC2(O)C(=O)COC1OC(CO)C(O)C(O)C1O (stereo unspecified)	0.27
CCCCCCCCOc1ccccc1NC(=O)OCCN1CCCCC1	6.36
NN(c1ccccc1)c1ccccc1	2.8
Nc1ccc(S(=O)(=O)Nc2ccccc2Cl)cc1	2
Cc1ccc(C)n1N(C)c1ccc(N2CCOCC2)nn1	2.21
CCC[N+](=O)[O-]	0.87
Cc1ccc2c(c1)c([N+](=O)[O-])cc[n+]2[O-]	1.43
CCCl	1.43
CCCCC(N)C(=O)O (stereo unspecified)	-1.53
Cc1cccc(S(I)=C(N(C)C)N(C)C)c1 (stereo unspecified)	-0.14
O=C(O)COc1cccc(I)c1	2.44
COc1cc(OC)cc(C(=O)O)c1	2.19

Structure (SMILES)	logP
CCCOC(N)=O	0.36
c1ccc(NC2=NCCN2)cc1	1.01
NC(=O)c1cccc(C(N)=O)c1	-0.21
Cc1onc(-c2c(Cl)cccc2Cl)c1C(=O)N[C@@H]1C(=O)N2[C@@H]1SC(C)(C)[C@@H]2C(=O)O	2.91
CC(C)CO	0.76
CN(C)c1cccnn1	0.29
CC(=O)Nc1cccs1	1.1
CCCCn1cnc2c(NC(C)=O)ncnc21	0.55
CCOP(=S)(OCC)Oc1ccc(Cl)cc1Cl	5.14
O=C(O)C(c1ccc(Cl)cc1)n1cccc1 (stereo unspecified)	2.3
OCCCl	0.03
Nc1nc2cc(Cl)ccc2[nH]1	1.88
O=C1c2ccccc2-c2ccccc21	3.58
c1ccc(Cc2ccccc2)cc1	4.14
CCN(CC)CCNC(=O)c1cc(F)c(N)cc1OC	2.28
Cc1ccc(C(O)c2ccccc2)cc1 (stereo unspecified)	3.13
CN1CCN(C2=Nc3cc(Cl)ccc3Nc3ccccc32)CC1	3.23
CNC(=O)ON=C(C)SC	0.6
COc1cccc(C(=O)NN)c1	0.4
Nc1ccc(C(=O)Oc2cccc(F)c2)c(O)c1	3.42
CC(C)(C)N(CC(O)COc1ccccc1)CC(O)COc1ccccc1 (stereo unspecified)	3.99
O=C(O)c1ccc(C(F)(F)F)cc1	3.1
OCc1cccs1	0.87
CCOC(=O)OCC	1.21
CC(C)(C)C(=O)NN	-0.35

Structure (SMILES)	logP
COC(=O)/C=C\C(=O)OC	0.22
Cc1cnc(C)cn1	0.63
Cc1ccc2c(c1)C(=O)C=CC2=O	2.1
CC(C)I	2.89
O=C(OC(=O)c1ccccc1)c1ccccc1	2.26
OCC(O)COc1ccccc1 (stereo unspecified)	0.7
C=CCOc1ccccc1	2.94
Clc1cccc(-c2ccccc2Cl)c1	5.02
CCCCCCCCO	3
CC(=O)NC1CC(=O)N(c2ccccc2)C1=O (stereo unspecified)	-0.33
Clc1ccc(-c2cc(Cl)c(Cl)c(Cl)c2Cl)c(Cl)c1	7.44
CC=CC(C)=O	0.52
NC(=O)C(c1ccccc1)c1ccccn1 (stereo unspecified)	0.83
N#Cc1ccc(C#N)cc1	0.93
CCN(O)C(N)=O	-0.1
CC(=O)c1ccccc1C(=O)O	0.81
COC(N)=O	-0.66
CN(C)C(=O)OCc1ccc(F)cc1	2.3
Nc1ccccc1C(F)(F)F	2.41
Cc1cc(Cl)ccc1NC1=NCCN1	1.8
FC(F)(F)c1nc2ccccc2[nH]1	2.67
CN(C)C(N(C)C)=S(I)c1ccccc1Br (stereo unspecified)	0.06
CCC(=O)C1(c2cccc(OC(=O)c3ccccc3)c2)CCN(C)CC1	3.03
OCCCCc1ccncc1	0.9
Nc1ccc2c(n1)[nH]c1ccccc12	2.6

Structure (SMILES)	logP
Oc1ccc(Cl)c2cccnc12	2.88
Cc1cc(C)c(C)c(C)c1C	4.56
CCCCC(=O)OCC(=O)C1(O)C(C)CC2C3CCC4=CC(=O)C=CC4(C)C3(F)C(O)CC21C (stereo unspecified)	3.87
N#CCCl	0.45
CCOP(=S)(OCC)Oc1cc(C)nc(C(C)C)n1	3.81
CC(=O)OCC1=C(C(=O)O)N2C(=O)[C@@H](NC(=O)CC#N)[C@H]2SC1	-0.45
CCCNCc1cccnc1	0.9
CCNc1nc(NC(C)C(C)C)nc(SC)n1 (stereo unspecified)	3.9
S=C=S	1.94
CN(Cc1ccccc1)c1ccccc1	4.22
CN(C)C(=O)Nc1cccc(N)c1	-0.1
CC(C)(C)NC(=O)NO	0.5
Cn1c(N)nc2cc(Cl)ccc21	2.09
Oc1c(Cl)cccc1Cl	2.75
CN(C)S(=O)(=O)c1ccc(N)cc1	0.67
ClC(Cl)C(Cl)Cl	2.39
O=C1CCN(c2ccccc2)N1	0.89
CCOC(=O)Nc1ccccc1	2.3
CCCc1ncc([N+](=O)[O-])n1CCNC(=S)OC	1.94
CC1CCCCC1	3.61
NCCCC[C@H](N)C(=O)O	-3.05
O=S1(=O)C=Cc2ccccc21	0.88
CCCN(CC)CCC	2.68
O=C(CBr)NC(CO)C(O)c1ccc([N+](=O)[O-])cc1 (stereo unspecified)	0.66
CCC1(C(C)CC(C)O)C(=O)NC(=O)NC1=O (stereo unspecified)	0.35

Structure (SMILES)	logP
COc1ccc(NC(=O)NN=Cc2ccc[nH]2)cc1	2.67
CCN(C(=O)SCc1ccccc1)C(C)C(C)C (stereo unspecified)	4.6
O=[N+]([O-])c1ccccc1SSc1ccccc1[N+](=O)[O-]	3.37
C[C@]12CCC(=O)C=C1CC[C@@H]1[C@@H]2[C@@H](O)C[C@@]2(C)[C@H]1CC[C@]2(O)C(=O)CO	1.61
CNC(=O)Oc1cc(C)c(C)c(C)c1	2.66
c1cscn1	0.44
CNS(=O)(=O)c1ccccc1	0.92
Cc1ccc(C=C(C#N)C#N)cc1	2.4
CCCS(=O)(=O)CCC	0.39
CCCC[Si](C)(C)C	4.2
CCOC(=O)C(=Cc1ccccc1[N+](=O)[O-])C(=O)OCC	2.54
CC(=O)Nc1cccc(C(C)=O)c1	1.06
CCC1(C2=CCCCC2)C(=O)NC(=O)NC1=O	1.77
C=CCC1(C(C)CCC)C(=O)NC(=O)NC1=O (stereo unspecified)	1.97
N#CCc1ccc(Cl)cc1	2.47
CCCCl	2.04
CN(C)C(=O)Nc1ccc(C(C)(C)C)cc1	3.1
O=C(O)Cc1ccccc1Nc1c(F)cccc1Cl	3.8
O=[N+]([O-])c1ccc2sccc2c1	2.92
COc1ccc(-c2nc3cnccc3o2)c(OC)c1	2.42
OC(c1ccccc1)(C(F)(F)F)C(F)(F)F	3.41
CC[C@H](C)[C@H](NC(=O)[C@H](CC(C)C)NC(C)=O)C(N)=O (Ac-Leu-Ile-NH2)	0.68
CCCC(=O)OCC(=O)C1(O)C(C)CC2C3CCC4=CC(=O)C=CC4(C)C3(F)C(O)CC21C (stereo unspecified)	3.55
Clc1ccc2ccccc2n1	2.71
O=S(=O)(Nc1ccccc1)C(F)F	1.95

Structure (SMILES)	logP
CCCC(NC(C)=O)C(=O)OC (stereo unspecified)	0.33
CC(C)c1ccccc1OCC(=O)O	2.84
N#CCNc1ccccc1C(N)=O	0.5
ClC(Cl)(Cl)c1ccc(C(Cl)(Cl)Cl)cc1	4.62
CC(=O)OC1(C(=O)CO)CCC2C3CCC4=CC(=O)CCC4(C)C3C(=O)CC21C (stereo unspecified)	2.45
CCCCCOc1cc(N)ccc1C(=O)O	2.38
CNC(=O)Oc1cc(C)ccc1C(C)(C)C	3.14
CCCNCC(C)C	2.07
CC(C)N(N=Nc1ccc(C(N)=O)cc1)C(C)C	3
C1=CCCCC1	2.86
COC(=O)c1cccc(N=NN(C)C)c1	3.12
CCCN(CCC)CCC	2.79
CN(C)CCCCc1cccnc1	1.49
Clc1cc(Cl)c(Cl)c(Cl)c1Cl	5.17
NC(=O)CCOc1ccccc1	0.8
COC(=O)c1cccc(O)c1	1.89
c1ccc(N2CCCC2)cc1	3.56
NC(=O)CCc1ccccn1	-0.27
CN(C)N=Nc1cccc(Cl)c1	3.44
CCCCCNc1nc(NCC)nc(SC(F)F)n1	4.71
CCN(N=O)C(=O)N(C)C	0.71
